Test results reported in patent US11839212B2, “Synergistic pesticidal compositions and methods for delivery of insecticidal active ingredients” (0903608 B.C. Ltd., priority 2018, dated 2023).
Like-named read-outs stand apart in the source and are kept apart here. Each block holds one compound with its values, some of them ahead of it.

Legend:
Assay in all cases: Synergistic Growth Inhibition Assay (MIC and FIC index, 96-well, resazurin)
Format in all cases: cell-based
Botrytis cinerea = settings: for MIC: Botrytis cinerea, 48 h
Experimental: (§1) In some embodiments, the synergistic action between the pesticidal active ingredient, and the at least one C6-C10 (or alternatively C11 or C12) saturated or unsaturated aliphatic acid components of the pesticidal compositions according to embodiments of the present disclosure was tested using a Synergistic Growth Inhibition Assay, which is derived from and related to a checkerboard assay as is known in the art for testing of combinations of antimicrobial agents. In the Synergistic Growth Inhibition Assay used in accordance with some embodiments of the present disclosure, multiple dilutions of combinations of pesticidal active ingredient and at least one C6-C10 saturated or unsaturated aliphatic acid agents are tested in individual cells for inhibitory activity against a target pest or pathogenic organism. In one such embodiment, the combinations of pesticidal active ingredient and C6-C10 (or alternatively C11 or C12) saturated or unsaturated aliphatic acid agents may preferably be tested in decreasing concentrations. In a further such embodiment, the combinations of pesticidal active ingredient and C6-C10 (or alternatively C11 or C12) saturated or unsaturated aliphatic acid agents may be tested in increasing concentrations. These multiple combinations of the pesticidal active ingredient and at least one C6-C10 (or alternatively C11 or C12) saturated or unsaturated aliphatic acid agents may be prepared in 96-well microtiter plates. In one such embodiment, the Synergistic Growth Inhibition Assay then comprises rows which each contain progressively decreasing concentrations of the pesticidal active ingredient and one or more C6-C10 (or alternatively C11 or C12) saturated or unsaturated aliphatic acid agents to test for the MIC of the agents in combination at which growth of the target pest or pathogen is inhibited. Thus, each well of the microtiter plate is a unique combination of the two agents, at which inhibitory efficacy of the combination against the target pest or pathogen can be determined.
(§2) In one embodiment according to the present disclosure, for each row of microtiter cells in the Synergistic Growth Inhibition Assay, the FIC index is calculated from the lowest concentration of the pesticidal active ingredient and one or more C6-C10 saturated or unsaturated aliphatic acid agents necessary to inhibit growth of a target pest or pathogen. The FIC of each component is derived by dividing the concentration of the agent present in that well of the microtiter plate by the minimal inhibitory concentration (MIC) needed of that agent alone to inhibit growth of the target pest or pathogen. The FIC index is then the sum of these values for both agents in that well of the microtiter plate. […] Fractional inhibitory concentration indices may then used as measure of synergy. […] When the FIC index is equal to 1, the combination is additive.
(§3) Then, serial dilutions of these initial compositions in successive wells in the row of the microtiter plate were used to assay the pesticidal composition under the same conditions to determine the concentration of the composition combining the two agents corresponding to the microtiter well in which growth inhibition of the target pest or organism ceases.
(§4) Similarly to as described above, Resazurin was used as an indicator of growth or inhibition of growth of Botrytis cinerea in the exemplary Synergistic Growth Inhibition Assay. In addition to the color change of the resazurin, an optical or visual examination of the microtiter well may also be made to additionally determine the presence of growth or inhibition of growth of the Botrytis cinerea.

Fusarium oxysporum = settings: Fusarium oxysporum
Experimental: as §1, §2, §3
Resazurin dye (also known as Alamar blue dye) was used as an indicator to determine the presence of growth or inhibition of growth of Fusarium oxysporum in the wells of the 96 well microtiter plates used in the exemplary Synergistic Growth Inhibition Assay. In addition to the color change of the resazurin dye in the presence of growth of the Fusarium oxysporum, an optical or visual examination of the microtiter well may also be made to additionally determine the presence of growth or inhibition of growth of the Fusarium oxysporum.

Sclerotinia sclerotiorum = settings: for MIC: Sclerotinia sclerotiorum
Experimental: as §1, §2, §3
as §4, with “Sclerotinia sclerotiorum” for “Botrytis cinerea”, “Sclerotinia sclerotiorum.” for “Botrytis cinerea.”

[1] = 48 h, Table 27, Compound B alone, 48 hours incubation, read-out: MIC (B)
[2] = 48 h, Table 30, Compound B alone, 48 hours incubation, read-out: MIC (B)
[3] = Table 43, Compound B alone, 48 hours incubation, read-out: MIC (B)
[4] = Table 45, Compound B alone, 48 hours incubation, read-out: MIC (B)
[5] = Table 52, Compound B alone, 48 hours incubation, read-out: MIC(B)
[6] = Table 56, Compound B alone, 48 hours incubation, read-out: MIC (B)
[7] = Table 59, Compound B alone, 48 hours incubation, read-out: MIC (B)
[8] = Table 24, Compound B alone, 48 hours incubation, read-out: MIC (B)
[9] = Table 25, Compound B alone, 48 hours incubation, read-out: MIC (B)
[10] = Table 26, Compound B alone, 48 hours incubation, read-out: MIC (B)
[11] = Table 54, Compound B alone, 48 hours incubation, read-out: MIC (B)
[12] = Table 51, Compound B alone, 48 hours incubation, read-out: MIC (B)
[13] = Table 20B, Compound A alone, incubation 7 days, read-out: MIC (A)

Compound: Cc1cc(C(F)(F)F)nn1CC(=O)N1CCC(c2nc(C3=NOC(c4c(F)cccc4F)C3)cs2)CC1 (stereo not shown) [Oxathiapiprolin, reference compound]
- MIC (A) (Botrytis cinerea; Table 55, Compound A alone, 48 hours incubation): 500 µg/mL

Compound: O=C(O)CCCCCCCO [8-Hydroxyoctanoic acid]
- MIC (Botrytis cinerea; read-out: MIC (B), Table 51, Compound B alone, 48 hours incubation): 1250 µg/mL
- MIC (Botrytis cinerea; read-out: MIC (B), Table 56, Compound B alone, 48 hours incubation): 2500 µg/mL
- MIC (Botrytis cinerea; read-out: MIC (B), Table 59, Compound B alone, 48 hours incubation): 1250 µg/mL

- MIC (Fusarium oxysporum; 24 h, Table 3, Compound B alone, 24 hour incubation, read-out: MIC(B)): 149 µg/mL
- MIC (Fusarium oxysporum; 24 h, Table 4, Compound B alone, 24 hour incubation, read-out: MIC (B)): 149 µg/mL
- MIC (Fusarium oxysporum; [1]): 312 µg/mL
- MIC (Fusarium oxysporum; [2]): 156 µg/mL
- MIC (Fusarium oxysporum; 48 h, Table 31, Compound B alone, 48 hours incubation, read-out: MIC (B)): 156 µg/mL
- MIC (Fusarium oxysporum; 48 h, Table 32, Compound B alone, 48 hours incubation, read-out: MIC (B)): 312 µg/mL
Compound: CCCCC/C=C/C(=O)O [Trans-2-octenoic acid, trans-2-octenoic acid]

- MIC (Botrytis cinerea; [3]): 78.1 µg/mL
- MIC (Botrytis cinerea; Table 44, Compound B alone, 48 hours incubation, read-out: MIC (B)): 39.1 µg/mL
- MIC (Botrytis cinerea; [4]): 156 µg/mL
- MIC (Botrytis cinerea; [5]): 156 µg/mL
- MIC (Botrytis cinerea; [6]): 312 µg/mL
- MIC (Fusarium oxysporum; 24 h, Table 1, Compound B alone, 24 hour incubation, read-out: MIC(B)): 312 µg/mL
- MIC (Fusarium oxysporum; 24 h, Table 2, Compound B alone, 24 hour incubation, read-out: MIC (B)): 312 µg/mL
- MIC (Sclerotinia sclerotiorum; Table 33, Compound B alone, 7 days incubation, read-out: MIC (B)): 156 µg/mL
Compound: CCC/C=C/C(=O)O [Trans-2-hexenoic acid, trans-2-hexenoic acid]

- MIC (Botrytis cinerea; [3]): 312 µg/mL
- MIC (Botrytis cinerea; [4]): 312 µg/mL
- MIC (Fusarium oxysporum; [1]): 312 µg/mL
- MIC (Fusarium oxysporum; [2]): 312 µg/mL
Compound: CC=CCCC(=O)O [4-Hexenoic acid]

Compound: CCCCCCCCCC(=O)[O-].[K+] [Decanoic acid, potassium salt, decanoic acid, potassium salt]
- MIC (Fusarium oxysporum; 24 h, read-out: MIC(B), Table 7, Compound B alone, 24 hour incubation): 78.1 µg/mL
- MIC (Fusarium oxysporum; read-out: MIC (B), Table 8, Compound B alone): 78.1 µg/mL

- MIC (Botrytis cinerea; [7]): 1250 µg/mL
Compound: CCCCC(O)C(=O)O (stereo not shown) [2-hydroxyhexanoic acid]

- MIC (Botrytis cinerea; Table 21, Compound B alone, incubation 48 hours, read-out: MIC (B)): 25 µg/mL
- MIC (Botrytis cinerea; [8]): 50 µg/mL
- MIC (Botrytis cinerea; [9]): 50 µg/mL
- MIC (Botrytis cinerea; [10]): 50 µg/mL
- MIC (Botrytis cinerea; [11]): 50 µg/mL
- MIC (Botrytis cinerea; [6]): 50 µg/mL
- MIC (Sclerotinia sclerotiorum; Table 16, Compound B alone, incubation 7 days, read-out: MIC (B)): 50 µg/mL
- MIC (Sclerotinia sclerotiorum; Table 17, Compound B alone, incubation 7 days, read-out: MIC (B)): 50 µg/mL
- MIC (Sclerotinia sclerotiorum; Table 18, Compound B alone, incubation 7 days, read-out: MIC (B)): 50 µg/mL
- MIC (Sclerotinia sclerotiorum; Table 20A, Compound B alone, incubation 7 days, read-out: MIC (B)): 25 µg/mL
Compound: CCCCCCCCCCCC(=O)O [Dodecanoic acid, dodecanoic acid]

- MIC (Botrytis cinerea; [7]): 312 µg/mL
Compound: CCCCCCCCC(O)C(=O)O (stereo not shown) [2-Hydroxydecanoic acid]

- MIC (Botrytis cinerea; [12]): 39.1 µg/mL
- MIC (Botrytis cinerea; [6]): 312 µg/mL
- MIC (Botrytis cinerea; [7]): 78.1 µg/mL
Compound: CCCCCCC(C)C(=O)O (stereo not shown) [2-Methyloctanoic acid]

Compound: N#Cc1c[nH]cc1-c1cccc2c1OC(F)(F)O2 [Fludioxonil, fludioxonil, reference compound]
- MIC (Fusarium oxysporum; 24 h, read-out: MIC (A), Table 2, Compound A alone, 24 hour incubation): 0.481 µg/mL
- MIC (Fusarium oxysporum; 24 h, read-out: MIC (A), Table 3, Compound A alone, 24 hour incubation): 0.241 µg/mL
- MIC (Fusarium oxysporum; 24 h, read-out: MIC(A), Table 7, Compound A alone, 24 hour incubation): 0.481 µg/mL
- MIC (Fusarium oxysporum; 48 h, read-out: MIC (A), Table 13, Compound A alone, incubation 48 hours): 21 µg/mL
- MIC (Fusarium oxysporum; 48 h, read-out: MIC (A), Table 15B, Compound A alone, incubation 48 hours): 21 µg/mL
- MIC (Fusarium oxysporum; 48 h, read-out: MIC (A), Table 29, Compound A alone, 48 hours incubation): 21 µg/mL
- MIC (Fusarium oxysporum; read-out: MIC (A), Table 8, Compound A alone): 0.481 µg/mL
- MIC (Sclerotinia sclerotiorum; read-out: MIC (A), Table 37, Compound A alone, 7 days incubation): 0.164 µg/mL

Compound: CCCC1COC(Cn2cncn2)(c2ccc(Cl)cc2Cl)O1 (stereo not shown) [Propiconazole, reference compound]
- MIC (Botrytis cinerea; Table 24, Compound A alone, 48 hours incubation, read-out: MIC (A)): 89 µg/mL
- MIC (Sclerotinia sclerotiorum; Table 18, Compound A alone, incubation 7 days, read-out: MIC (A)): 89 µg/mL
- MIC (Sclerotinia sclerotiorum; [13]): 89 µg/mL
- MIC (Sclerotinia sclerotiorum; Table 39, Compound A alone, 7 days incubation, read-out: MIC (A)): 89 µg/mL

Compound: CON=C(C(=O)OC)c1ccccc1CON=C(C)c1cccc(C(F)(F)F)c1 [Trifloxystrobin, reference compound]
- MIC (Botrytis cinerea; Table 58, Compound A alone, 48 hours incubation, read-out: MIC (A)): 250 µg/mL
- MIC (Botrytis cinerea; Table 59, Compound A alone, 48 hours incubation, read-out: MIC (A)): 250 µg/mL

- MIC (Sclerotinia sclerotiorum; Table 34, Compound B alone, 7 days incubation, read-out: MIC (B)): 19.5 µg/mL
Compound: CCCCCCC/C=C\C(=O)O [Cis-2-decenoic acid]

Compound: CCCCCCCCCC(=O)O [Decanoic acid, decanoic acid]
- MIC (Botrytis cinerea; Table 22, Compound B alone, incubation 48 hours, read-out: MIC (B)): 78.1 µg/mL
- MIC (Botrytis cinerea; [8]): 312 µg/mL
- MIC (Botrytis cinerea; [9]): 15.6 µg/mL
- MIC (Botrytis cinerea; [10]): 78.1 µg/mL
- MIC (Botrytis cinerea; [5]): 15.6 µg/mL
- MIC (Botrytis cinerea; [11]): 15.6 µg/mL

Compound: CCCCCCCC/C=C\CCCCCCCC(=O)O [Oleic acid]
- MIC (Botrytis cinerea; [11]): 5000 µg/mL
- MIC (Botrytis cinerea; [6]): 5000 µg/mL

- MIC (Botrytis cinerea; [12]): 7.81 µg/mL
- MIC (Botrytis cinerea; [6]): 125 µg/mL
- MIC (Botrytis cinerea; [7]): 125 µg/mL
Compound: CCCCCCCCC(C)C(=O)O (stereo not shown) [2-Methyldecanoic acid]

Compound: CCCCCCCC/C=C\CCCCCCCC(=O)O [(9Z)-octadecenoic acid]
- MIC (B) (Botrytis cinerea; Table 49, Compound B alone, 48 hours incubation): 5000 µg/mL
- MIC (B) (Botrytis cinerea; Table 50, Compound B alone, 48 hours incubation): 5000 µg/mL
- MIC (B) (Sclerotinia sclerotiorum; Table 33, Compound B alone, 7 days incubation): 5000 µg/mL

Compound: C/C=C/C=C/C(=O)[O-].[K+] [(2E,4E)-2,4-hexadienoic acid, potassium salt]
- MIC (Fusarium oxysporum; 24 h, read-out: MIC (B), Table 2, Compound B alone, 24 hour incubation): 625 µg/mL
- MIC (Fusarium oxysporum; 24 h, read-out: MIC(B), Table 1, Compound B alone, 24 hour incubation): 625 µg/mL

Compound: COCC(=O)N(c1c(C)cccc1C)C(C)C(=O)OC (stereo not shown) [Metalaxyl, reference compound]
- MIC (Botrytis cinerea; Table 23, Compound A alone, incubation 48 hours, read-out: MIC (A)): 316 µg/mL
- MIC (Botrytis cinerea; Table 26, Compound A alone, 48 hours incubation, read-out: MIC (A)): 316 µg/mL
- MIC (Botrytis cinerea; Table 48, Compound A alone, 48 hours incubation, read-out: MIC (A)): 316 µg/mL
- MIC (Sclerotinia sclerotiorum; [13]): 1260 µg/mL

- MIC (Botrytis cinerea; [12]): 250 µg/mL
- MIC (Botrytis cinerea; [7]): 250 µg/mL
Compound: CCC(CC)(CC)C(=O)O [2,2-Diethylbutanoic acid]
